Assay results taken from PubChem BioAssay (NCI).
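Exposure lasted 48 hours, with cells grown in 96-well plates and compounds tested at five concentrations. TGI is the concentration that stops growth completely.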

Legend:
Assay in all cases: NCI anticancer screen, dose series, 48 h
SNB-78 CNS = test system: SNB-78 CNS
LXFL 529 NSCLC = test system: LXFL 529 NSCLC
DMS 114 small cell lung = test system: DMS 114 small cell lung
KM20L2 colon = test system: KM20L2 colon
HOP-18 NSCLC = test system: HOP-18 NSCLC
RXF-631 renal = test system: RXF-631 renal
DLD-1 colon = test system: DLD-1 colon
XF 498 CNS = test system: XF 498 CNS

Row | Structure (SMILES) | TGI (SNB-78 CNS) [µM] | TGI (LXFL 529 NSCLC) [µM] | TGI (DMS 114 small cell lung) [µM] | TGI (KM20L2 colon) [µM] | TGI (HOP-18 NSCLC) [µM] | TGI (RXF-631 renal) [µM] | TGI (DLD-1 colon) [µM] | TGI (XF 498 CNS) [µM]
1 | CCOC(=O)c1ncoc1[C@H]1COC(C)(C)O1 | > 100 | > 100 | > 100 | > 100 | > 100 | > 100 | > 100 | –
2 | O=C1Nc2cccc3ncn(c23)C2=C1CCCC2 | > 100 | > 100 | > 100 | > 100 | 83.8 | – | > 100 | –
3 | O=C1C=C(N2CCCC2)C=C(N2CCCC2)C1 | > 100 | > 100 | > 100 | > 100 | > 100 | – | > 100 | > 100
4 | O=C(O)C(CS)NCc1c2ccccc2[n+]([O-])c2ccccc12 (stereo not drawn) | > 100 | 84.3 | 68.6 | > 100 | > 100 | > 100 | > 100 | –
5 | CCN(CC)CCNC(=O)c1ccc([N+](=O)[O-])cc1OC | > 100 | > 100 | > 100 | > 100 | – | – | > 100 | –
6 | CCOc1ccc(N2C(=O)C3c4[nH]c5ccccc5c4C4CCC(C(C)(C)C)CC4C3C2=O)cc1 (stereo not drawn) | > 100 | > 100 | > 100 | > 100 | > 100 | – | > 100 | > 100
7 | Cc1c(C(=O)CSc2nc3ccc([N+](=O)[O-])cc3[nH]2)c(=O)n(-c2ccccc2)n1C | – | > 100 | > 100 | – | – | – | > 100 | > 100
